Data published in patent US20260272869A1, “ORAL COMPOSITION COMPRISING L-THEANINE” (NICOVENTURES TRADING LIMITED, priority 2023, published 2026).

Tested on: blood-brain barrier
Experiment: Enhancement of blood-brain barrier permeation of P-glycoprotein substrate compounds by piperine
Settings: P-glycoprotein substrate compound combined with piperine

| SMILES | Permeation across the blood-brain barrier / bioavailability when combined with piperine |
| --- | --- |
| CC(/C=C/C=C(\C)C(=O)O)=C\C=C\C=C(C)\C=C\C=C(/C)C(=O)O [crocetin] | enhanced |
| CC(/C=C/C=C(\C)C(=O)O[C@@H]1O[C@H](CO[C@@H]2O[C@H](CO)[C@@H](O)[C@H](O)[C@H]2O)[C@@H](O)[C@H](O)[C@H]1O)=C\C=C\C=C(C)\C=C\C=C(/C)C(=O)O[C@@H]1O[C@H](CO[C@@H]2O[C@H](CO)[C@@H](O)[C@H](O)[C@H]2O)[C@@H](O)[C@H](O)[C@H]1O [crocin] | enhanced |
| CC1=C(C)C(=O)O[C@@H]([C@](C)(O)[C@H]2CC[C@H]3[C@@H]4[C@@H]5O[C@@H]5[C@@]5(O)CC=CC(=O)[C@]5(C)[C@H]4CC[C@]23C)C1 [withanolide A] | enhanced |
| CC1=C(C)C(=O)O[C@@H]([C@@H](C)[C@@]2(O)CC[C@H]3[C@@H]4[C@@H]5O[C@@H]5[C@@]5(O)CC=CC(=O)[C@]5(C)[C@H]4CC[C@@]32C)C1 [withanone] | enhanced |
